Measurements reported in US20230240297A1, “SELECTIVE HERBICIDES BASED ON SUBSTITUTED ISOXAZOLIN CARBOXAMIDES AND CYPROSULFAMIDE” (Bayer Aktiengesellschaft, priority 2020, published 2023).

Tests used:
[1] = test system: ZEAMA Sileno; test: Tank-mix; post-emergence, crop damage with and without safener; assay type: in vivo, maize; details: for HER effect + SAF / HER effect: Final assessment; for HER effect: no safener
Description: Seeds of crops (spring wheat, TRZAS; spring barley, HORVS; maize, ZEAMA) were placed in sandy loam soil in peat pots, covered with soil and cultivated in a greenhouse under good growth conditions. Two to three weeks after sowing, the test plants were treated at the 1 to 3-leaf stage. The herbicide/safener active compound combinations according to the invention, formulated as wettable powders or emulsion concentrates, and, in parallel tests, the correspondingly formulated individual active compounds were sprayed onto the green parts of the plants in various dosages using an amount of water of 300 1/ha (converted).
The pots were returned under good growing conditions in a glasshouse and a visual assessment of herbicidal effects was made at intervals from 1 to 3 weeks after herbicide application (DAT = days after treatment). Assessment was on a percentage basis in comparison with untreated control plants (0% = no injury, 100% = complete kill).

[2] = test system: ZEAMA Sileno; test: Seed treatment with safener; post-emergence herbicide application; assay type: in vivo, maize; set-up: Reduction [Difference]: scale not given here; details: Final assessment; for Reduction [%] / Reduction [Difference]: Cyprosulfamide 0.5 g a.i./kg seed; for Reduction [Difference]: damage without safener - damage with safener; for HER effect + SAF (crop damage with safener): Cyprosulfamide seed treatment 0.5 g a.i./kg seed; for HER effect (crop damage, herbicide without safener): no safener
Description: For the safener seed treatment, sufficient seeds of the respective crops (spring wheat, TRZAS; spring barley, HORVS; maize, ZEAMA) were weighed into screw top glass bottles approximately twice the volume of the seeds.
The specified safeners, formulated as wettable powder (WP) were weighed out so that the specified rates (g a.i./kg seed) would be obtained, dissolved in water (1 ml water per 10 g of seeds), and added to the seeds to produce a slurry.
The bottles were capped and then placed in an overhead shaker (set at medium speed for ca. 60 minutes) so that the seeds were evenly coated with the slurry. The bottles were uncapped and the seeds were either placed on paper and dried for an interval of 3-4 hours prior to sowing, or directly sown. Seeds were placed in sandy loam soil in pots of a diameter of 7-8 cm, covered with soil, and cultivated in a greenhouse under good growth conditions.
Post-emergence application of the specified herbicides was done when the plants had reached growth stage BBCH11-13, on two sets of plants:
a) seed treatment with safener, as described above b) no safener treatment
The herbicides were formulated as WP and sprayed onto the green parts of the plants as an aqueous suspension at an equivalent water application rate of 300 1/ha, with addition of wetting agent and adjuvants (e.g. Mero, 1.5 1/ha; ammonium sulphate, 2 kg/ha)
After application, the test plants were kept in the greenhouse under good growth conditions.
Values in the table below are mean values of at least 2 replicates.

[3] = HER 8 g a.i./ha, cyprosulfamide 50 g a.i./ha
[4] = HER 32 g a.i./ha, cyprosulfamide 100 g a.i./ha
[5] = HER dose 8 g a.i./ha + cyprosulfamide 50 g a.i./ha tank-mix
[6] = HER dose 32 g a.i./ha + cyprosulfamide 100 g a.i./ha tank-mix
[7] = HER 2 g a.i./ha, cyprosulfamide 50 g a.i./ha
[8] = HER 2 g a.i./ha, cyprosulfamide 50 g a.i./ha, damage without safener - damage with safener
[9] = HER dose 2 g a.i./ha + cyprosulfamide 50 g a.i./ha tank-mix
[10] = HER dose 2 g a.i./ha, 0% = no injury, 100% = complete kill

SMILES: CCOC(=O)C1C=CC(NC(=O)C2(C(F)(F)F)CC(c3ccccc3)=NO2)C1 (stereo not drawn) [Example 1.9]
- Reduction [%] [1, 3]: 87%
- Reduction [Difference] [1, 3]: 68
- Reduction [%] [1, 4]: 59%
- Reduction [Difference] [1, 4]: 50
- HER effect + SAF [1, 5]: 10%
- HER effect ([1]; HER dose 8 g a.i./ha): 78%
- HER effect + SAF [1, 6]: 35%
- HER effect ([1]; HER dose 32 g a.i./ha): 85%
- Reduction [%] ([2]; HER dose 8 g a.i./ha): 100%
- Reduction [Difference] ([2]; HER dose 8 g a.i./ha): 78
- HER effect + SAF (crop damage with safener) ([2]; HER dose 8 g a.i./ha): 0%
- HER effect (crop damage, herbicide without safener) ([2]; HER dose 8 g a.i./ha): 78%
- Reduction [%] ([2]; HER dose 32 g a.i./ha): 100%
- Reduction [Difference] ([2]; HER dose 32 g a.i./ha): 85
- HER effect + SAF (crop damage with safener) ([2]; HER dose 32 g a.i./ha): 0%
- HER effect (crop damage, herbicide without safener) ([2]; HER dose 32 g a.i./ha): 85%

SMILES: COC(=O)C1C=CC(NC(=O)C2(C(F)(F)F)CC(c3cccc(F)c3)=NO2)C1 (stereo not drawn) [Example 1.18]
- Reduction [%] [1, 3]: 66%
- Reduction [Difference] [1, 3]: 62
- Reduction [%] [1, 4]: 72%
- Reduction [Difference] [1, 4]: 70
- HER effect + SAF [1, 5]: 32%
- HER effect ([1]; HER dose 8 g a.i./ha): 94%
- HER effect + SAF [1, 6]: 27%
- HER effect ([1]; HER dose 32 g a.i./ha): 97%
- Reduction [%] ([2]; HER dose 8 g a.i./ha): 89%
- Reduction [Difference] ([2]; HER dose 8 g a.i./ha): 84
- HER effect + SAF (crop damage with safener) ([2]; HER dose 8 g a.i./ha): 10%
- HER effect (crop damage, herbicide without safener) ([2]; HER dose 8 g a.i./ha): 94%
- Reduction [%] ([2]; HER dose 32 g a.i./ha): 79%
- Reduction [Difference] ([2]; HER dose 32 g a.i./ha): 77
- HER effect + SAF (crop damage with safener) ([2]; HER dose 32 g a.i./ha): 20%
- HER effect (crop damage, herbicide without safener) ([2]; HER dose 32 g a.i./ha): 97%

SMILES: COC(=O)C1=CC(NC(=O)C2(C)CC(c3cc(F)cc(F)c3)=NO2)CC1 (stereo not drawn) [Example 1.63]
- Reduction [%] [1, 7]: 87%
- Reduction [Difference] [1, 8]: 20
- Reduction [%] [1, 3]: 73%
- Reduction [Difference] [1, 3]: 62
- Reduction [%] [1, 4]: 52%
- Reduction [Difference] [1, 4]: 46
- HER effect + SAF [1, 9]: 3%
- HER effect [1, 10]: 23%
- HER effect + SAF [1, 5]: 23%
- HER effect ([1]; HER dose 8 g a.i./ha): 85%
- HER effect + SAF [1, 6]: 42%
- HER effect ([1]; HER dose 32 g a.i./ha): 88%
- Reduction [%] ([2]; HER dose 2 g a.i./ha): 100%
- Reduction [Difference] ([2]; HER dose 2 g a.i./ha): 23
- HER effect + SAF (crop damage with safener) ([2]; HER dose 2 g a.i./ha): 0%
- HER effect (crop damage, herbicide without safener) ([2]; HER dose 2 g a.i./ha): 23%
- Reduction [%] ([2]; HER dose 8 g a.i./ha): 85%
- Reduction [Difference] ([2]; HER dose 8 g a.i./ha): 72
- HER effect + SAF (crop damage with safener) ([2]; HER dose 8 g a.i./ha): 13%
- HER effect (crop damage, herbicide without safener) ([2]; HER dose 8 g a.i./ha): 85%
- Reduction [%] ([2]; HER dose 32 g a.i./ha): 85%
- Reduction [Difference] ([2]; HER dose 32 g a.i./ha): 75
- HER effect + SAF (crop damage with safener) ([2]; HER dose 32 g a.i./ha): 13%
- HER effect (crop damage, herbicide without safener) ([2]; HER dose 32 g a.i./ha): 88%

SMILES: C=CC1(C(=O)NC2COC(C(=O)OC)C2)CC(c2cc(F)cc(F)c2)=NO1 (stereo not drawn) [Example 1.69]
- Reduction [%] [1, 3]: 76%
- Reduction [Difference] [1, 3]: 70
- Reduction [%] [1, 4]: 73%
- Reduction [Difference] [1, 4]: 68
- HER effect + SAF [1, 5]: 22%
- HER effect ([1]; HER dose 8 g a.i./ha): 92%
- HER effect + SAF [1, 6]: 25%
- HER effect ([1]; HER dose 32 g a.i./ha): 93%
- Reduction [%] ([2]; HER dose 8 g a.i./ha): 82%
- Reduction [Difference] ([2]; HER dose 8 g a.i./ha): 75
- HER effect + SAF (crop damage with safener) ([2]; HER dose 8 g a.i./ha): 17%
- HER effect (crop damage, herbicide without safener) ([2]; HER dose 8 g a.i./ha): 92%
- Reduction [%] ([2]; HER dose 32 g a.i./ha): 75%
- Reduction [Difference] ([2]; HER dose 32 g a.i./ha): 70
- HER effect + SAF (crop damage with safener) ([2]; HER dose 32 g a.i./ha): 23%
- HER effect (crop damage, herbicide without safener) ([2]; HER dose 32 g a.i./ha): 93%

SMILES: C=CC1(C(=O)NC2COC(C(=O)OC)C2)CC(c2cc(F)cc(F)c2)=NO1 (stereo not drawn) [Example 1.70]
- Reduction [%] [1, 7]: 77%
- Reduction [Difference] [1, 8]: 68
- Reduction [%] [1, 3]: 21%
- Reduction [Difference] [1, 3]: 20
- Reduction [%] [1, 4]: 41%
- Reduction [Difference] [1, 4]: 40
- HER effect + SAF [1, 9]: 20%
- HER effect [1, 10]: 88%
- HER effect + SAF [1, 5]: 77%
- HER effect ([1]; HER dose 8 g a.i./ha): 97%
- HER effect + SAF [1, 6]: 58%
- HER effect ([1]; HER dose 32 g a.i./ha): 98%
- Reduction [%] ([2]; HER dose 2 g a.i./ha): 80%
- Reduction [Difference] ([2]; HER dose 2 g a.i./ha): 70
- HER effect + SAF (crop damage with safener) ([2]; HER dose 2 g a.i./ha): 18%
- HER effect (crop damage, herbicide without safener) ([2]; HER dose 2 g a.i./ha): 88%
- Reduction [%] ([2]; HER dose 8 g a.i./ha): 77%
- Reduction [Difference] ([2]; HER dose 8 g a.i./ha): 75
- HER effect + SAF (crop damage with safener) ([2]; HER dose 8 g a.i./ha): 22%
- HER effect (crop damage, herbicide without safener) ([2]; HER dose 8 g a.i./ha): 97%
- Reduction [%] ([2]; HER dose 32 g a.i./ha): 67%
- Reduction [Difference] ([2]; HER dose 32 g a.i./ha): 66
- HER effect + SAF (crop damage with safener) ([2]; HER dose 32 g a.i./ha): 32%
- HER effect (crop damage, herbicide without safener) ([2]; HER dose 32 g a.i./ha): 98%
